Data set [1] has as its system THP-1. The data set can be described thus: Induction of apoptosis against human THP-1 cells assessed as necrotic cells at 10 uM measured for 24 hrs by Annexin V-FITC/propidium iodide staining based flow cytometry (reference value: 0.316%). It counts as functional.
The test system of data set [2] is Jurkat. The data set can be described thus: Upregulation of phosphorylated ERK1/2 protein expression in human Jurkat cells measured for 3 hrs. It counts as functional, cell-based. The settings on record: dose 0.1-10 µM.
For data set [3], the target named is T1, Phosphatidylinositol 4,5-bisphosphate 3-kinase catalytic subunit delta isoform (Homo sapiens) (UniProt O00329).
T1 sequence (whole entry): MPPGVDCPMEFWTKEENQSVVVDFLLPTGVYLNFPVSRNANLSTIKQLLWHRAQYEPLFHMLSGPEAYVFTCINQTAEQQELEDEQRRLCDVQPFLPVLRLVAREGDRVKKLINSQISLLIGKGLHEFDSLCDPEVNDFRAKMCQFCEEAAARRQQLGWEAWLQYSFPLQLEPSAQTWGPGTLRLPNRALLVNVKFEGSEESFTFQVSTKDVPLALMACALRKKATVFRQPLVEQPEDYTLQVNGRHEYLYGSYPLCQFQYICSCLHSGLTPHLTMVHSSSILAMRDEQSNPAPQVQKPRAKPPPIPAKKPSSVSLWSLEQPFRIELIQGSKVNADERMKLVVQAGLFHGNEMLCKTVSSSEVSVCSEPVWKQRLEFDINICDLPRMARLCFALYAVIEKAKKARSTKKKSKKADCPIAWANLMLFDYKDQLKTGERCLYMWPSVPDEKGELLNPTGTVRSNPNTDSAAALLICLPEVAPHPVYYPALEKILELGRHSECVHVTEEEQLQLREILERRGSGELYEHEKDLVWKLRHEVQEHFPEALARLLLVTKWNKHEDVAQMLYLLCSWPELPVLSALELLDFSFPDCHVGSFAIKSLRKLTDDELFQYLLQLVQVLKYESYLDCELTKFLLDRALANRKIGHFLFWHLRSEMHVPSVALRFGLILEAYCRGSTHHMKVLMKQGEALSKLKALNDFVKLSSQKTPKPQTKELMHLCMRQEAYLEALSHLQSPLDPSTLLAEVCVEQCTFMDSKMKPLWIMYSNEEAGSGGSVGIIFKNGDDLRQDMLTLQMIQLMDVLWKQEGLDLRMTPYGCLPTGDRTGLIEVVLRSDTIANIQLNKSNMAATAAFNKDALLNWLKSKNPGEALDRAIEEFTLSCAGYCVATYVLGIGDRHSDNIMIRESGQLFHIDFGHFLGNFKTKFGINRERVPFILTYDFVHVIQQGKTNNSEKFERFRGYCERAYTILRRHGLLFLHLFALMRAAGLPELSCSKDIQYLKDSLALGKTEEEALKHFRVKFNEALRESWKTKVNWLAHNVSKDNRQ
The data set can be described thus: Antagonist activity at PI3Kdelta (unknown origin) assessed as inhibition rate at 20 nM using PIP2 as substrate in presence of ATP incubated for 30 to 60 mins by ADP-glo based luminescence assay relative to control. The following applies: time 30-60 min.

Data set [4] concerns THP-1. The data set can be described thus: Induction of apoptosis against human THP-1 cells assessed as viable cells at 0.1 uM measured for 24 hrs by Annexin V-FITC/propidium iodide staining based flow cytometry (reference value: 85.6%). It counts as functional. The settings on record: read-out: Activity.
Data set [5] relates to Jurkat. The data set can be described thus: Induction of apoptosis against human Jurkat cells assessed as viable cells at 10 uM measured for 24 hrs by Annexin V-FITC/propidium iodide staining based flow cytometry (reference value: 94.2 %). Type of data set: functional. The settings on record: read-out: Activity.
The test system of data set [6] is THP-1. The data set can be described thus: Induction of apoptosis against human THP-1 cells assessed as early apoptotic cells at 1 uM measured for 24 hrs by Annexin V-FITC/propidium iodide staining based flow cytometry (reference value: 10.3%). It counts as functional.
The subject of data set [7] is Jurkat. The data set can be described thus: Cytotoxicity against human Jurkat cells assessed as reduction in cell viability incubated for 24 hrs by CCK-8 assay. It counts as functional, cell-based.
The target of data set [8] is Phosphatidylinositol 4,5-bisphosphate 3-kinase catalytic subunit gamma isoform (Homo sapiens, UniProt P48736). The data set can be described thus: Antagonist activity at PI3Kgamma (unknown origin) assessed as inhibition rate at 20 nM using PIP2 as substrate in presence of ATP incubated for 30 to 60 mins by ADP-glo based luminescence assay relative to control. The settings on record: filed as antagonist, time 30-60 min.

The test system of data set [9] is THP-1. The data set can be described thus: Induction of apoptosis against human THP-1 cells assessed as late apoptotic cells at 0.1 uM measured for 24 hrs by Annexin V-FITC/propidium iodide staining based flow cytometry (reference value: 3.70%). It counts as functional.
The nature of data set [10]: Cytotoxicity against mouse L929 cells assessed as reduction in cell viability incubated for 24 hrs by CCK-8 assay. It counts as toxicity, cell-based.
Data set [11] concerns Jurkat. The data set can be described thus: Induction of apoptosis against human Jurkat cells assessed as necrotic cells at 0.1 uM measured for 24 hrs by Annexin V-FITC/propidium iodide staining based flow cytometry (reference value: 0.00%). Type of data set: functional.
The subject of another data set is RAW264.7. The data set can be described thus: Inhibition of AKT phosphorylation in mouse RAW264.7 cells at 1 uM incubated for 1 to 12 hrs by Western blot analysis relative to control. It counts as cell-based. The settings on record: time 1-12 hrs.
A further data set deals with 4T1. The data set can be described thus: Cytotoxicity against mouse 4T1 cells assessed as reduction in cell viability incubated for 24 hrs by CCK-8 assay. It counts as functional, cell-based. The settings on record: 4T1, 24 h.
Data set [12] has as its system THP-1. The data set can be described thus: Induction of apoptosis against human THP-1 cells assessed as late apoptotic cells at 10 uM measured for 24 hrs by Annexin V-FITC/propidium iodide staining based flow cytometry (reference value: 3.70%). Type of data set: functional.
For data set [13], the system named is Jurkat. The data set can be described thus: Upregulation of phosphorylated ERK1/2 protein expression in human Jurkat cells at 10 uM measured for 3 hrs. It counts as functional, cell-based.
For a further data set, the system named is HepG2. The data set can be described thus: Cytotoxicity against human HepG2 cells assessed as reduction in cell viability incubated for 24 hrs by CCK-8 assay. Type of data set: functional, cell-based. The settings on record: HepG2, 24 h.
The test system of data set [14] is Jurkat. The data set can be described thus: Induction of apoptosis against human Jurkat cells assessed as late apoptotic cells at 1 uM measured for 24 hrs by Annexin V-FITC/propidium iodide staining based flow cytometry (reference value: 0.00%). It counts as functional.
Data set [15] has as its system Jurkat. The data set can be described thus: Upregulation of phosphorylated p38 protein expression in human Jurkat cells at 1 uM measured for 3 hrs. Type of data set: functional, cell-based.
Data set [16] deals with Jurkat. The data set can be described thus: Upregulation of phosphorylated p38 protein expression in human Jurkat cells measured for 3 hrs. Type of data set: functional, cell-based. The following applies: dose 0.1-10 µM.
In data set [17] the test system is THP-1. The data set can be described thus: Induction of apoptosis against human THP-1 cells assessed as viable cells at 10 uM measured for 24 hrs by Annexin V-FITC/propidium iodide staining based flow cytometry (reference value: 85.6%). The settings on record: read-out: Activity. Type of data set: functional.
In data set [18] the test system is Jurkat. The data set can be described thus: Induction of apoptosis against human Jurkat cells assessed as viable cells at 0.1 uM measured for 24 hrs by Annexin V-FITC/propidium iodide staining based flow cytometry (reference value: 94.2 %). It counts as functional. The following applies: read-out: Activity.
Data set [19] deals with THP-1. The data set can be described thus: Induction of apoptosis against human THP-1 cells assessed as necrotic cells at 1 uM measured for 24 hrs by Annexin V-FITC/propidium iodide staining based flow cytometry (reference value: 0.316%). It counts as functional.
The target in data set [20] is Serine/threonine-protein kinase AKT (Homo sapiens) (UniProt P31751+Q9Y243+P31749). The data set can be described thus: Inhibition of AKT phosphorylation in human Jurkat cells at 1 uM incubated for 1 to 12 hrs by Western blot analysis relative to control. It counts as cell-based. The following applies: time 1-12 hrs.
The subject of data set [21] is Jurkat. The data set can be described thus: Induction of apoptosis against human Jurkat cells assessed as necrotic cells at 10 uM measured for 24 hrs by Annexin V-FITC/propidium iodide staining based flow cytometry (reference value: 0.00%). It counts as functional.

The source made the active and inactive calls. No cut-off for these calls is given here.

Sequence of Phosphatidylinositol 4,5-bisphosphate 3-kinase catalytic subunit gamma isoform (P48736 whole entry, looked up, canonical isoform): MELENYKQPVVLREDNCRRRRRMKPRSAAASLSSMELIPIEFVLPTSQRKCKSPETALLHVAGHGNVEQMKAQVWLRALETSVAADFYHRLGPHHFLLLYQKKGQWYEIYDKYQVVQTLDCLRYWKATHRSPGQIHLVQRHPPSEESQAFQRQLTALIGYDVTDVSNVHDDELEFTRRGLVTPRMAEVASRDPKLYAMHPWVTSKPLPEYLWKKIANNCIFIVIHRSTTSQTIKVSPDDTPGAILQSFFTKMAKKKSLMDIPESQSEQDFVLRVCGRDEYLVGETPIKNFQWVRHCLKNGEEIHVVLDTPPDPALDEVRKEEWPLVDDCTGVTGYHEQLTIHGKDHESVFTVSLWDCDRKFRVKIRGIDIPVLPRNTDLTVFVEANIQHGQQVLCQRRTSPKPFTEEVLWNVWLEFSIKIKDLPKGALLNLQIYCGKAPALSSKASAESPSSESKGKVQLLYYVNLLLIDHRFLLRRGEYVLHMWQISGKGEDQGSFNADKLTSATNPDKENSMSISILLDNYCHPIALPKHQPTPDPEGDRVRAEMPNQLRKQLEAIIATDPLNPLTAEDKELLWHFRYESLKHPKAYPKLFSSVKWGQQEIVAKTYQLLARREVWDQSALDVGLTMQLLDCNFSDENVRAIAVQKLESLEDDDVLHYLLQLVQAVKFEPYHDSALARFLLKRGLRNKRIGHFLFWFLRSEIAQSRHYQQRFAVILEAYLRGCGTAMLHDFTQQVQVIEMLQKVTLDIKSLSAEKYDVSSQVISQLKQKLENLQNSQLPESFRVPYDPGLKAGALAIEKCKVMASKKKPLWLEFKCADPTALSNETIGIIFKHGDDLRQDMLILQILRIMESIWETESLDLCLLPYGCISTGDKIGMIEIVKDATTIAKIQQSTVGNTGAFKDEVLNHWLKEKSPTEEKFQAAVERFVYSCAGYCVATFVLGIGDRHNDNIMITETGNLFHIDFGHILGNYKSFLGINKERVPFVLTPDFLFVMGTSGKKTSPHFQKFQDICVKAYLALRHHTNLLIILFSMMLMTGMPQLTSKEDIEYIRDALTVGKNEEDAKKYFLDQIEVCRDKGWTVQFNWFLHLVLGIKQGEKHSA
Sequence of Serine/threonine-protein kinase AKT (Homo sapiens) (P31749 whole entry, looked up): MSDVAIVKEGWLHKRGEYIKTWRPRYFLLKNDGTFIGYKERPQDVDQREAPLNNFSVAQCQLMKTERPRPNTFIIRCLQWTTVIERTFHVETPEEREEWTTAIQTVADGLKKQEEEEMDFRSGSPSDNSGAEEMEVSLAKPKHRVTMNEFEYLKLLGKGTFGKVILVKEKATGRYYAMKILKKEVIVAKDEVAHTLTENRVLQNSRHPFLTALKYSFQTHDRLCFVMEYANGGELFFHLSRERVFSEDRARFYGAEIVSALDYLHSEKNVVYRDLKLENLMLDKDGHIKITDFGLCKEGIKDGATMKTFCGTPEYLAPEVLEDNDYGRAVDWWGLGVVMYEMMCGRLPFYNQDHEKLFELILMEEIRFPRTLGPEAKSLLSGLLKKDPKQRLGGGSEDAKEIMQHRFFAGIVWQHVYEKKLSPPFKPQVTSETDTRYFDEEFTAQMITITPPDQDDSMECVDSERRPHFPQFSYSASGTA
Sequence of Serine/threonine-protein kinase AKT (Homo sapiens) (P31751 whole entry, looked up): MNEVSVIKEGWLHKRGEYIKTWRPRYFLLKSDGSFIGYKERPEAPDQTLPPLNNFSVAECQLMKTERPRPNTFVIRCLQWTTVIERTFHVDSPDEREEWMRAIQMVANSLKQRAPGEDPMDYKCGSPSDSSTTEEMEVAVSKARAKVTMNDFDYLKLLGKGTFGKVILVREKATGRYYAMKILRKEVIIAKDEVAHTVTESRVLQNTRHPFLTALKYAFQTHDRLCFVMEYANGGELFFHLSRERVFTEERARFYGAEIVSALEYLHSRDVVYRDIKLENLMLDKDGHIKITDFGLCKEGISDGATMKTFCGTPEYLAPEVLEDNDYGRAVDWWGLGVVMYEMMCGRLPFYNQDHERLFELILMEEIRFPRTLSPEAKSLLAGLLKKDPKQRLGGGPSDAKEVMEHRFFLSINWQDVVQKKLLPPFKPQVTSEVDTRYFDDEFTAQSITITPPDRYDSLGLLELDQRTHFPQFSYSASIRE
Sequence of Serine/threonine-protein kinase AKT (Homo sapiens) (Q9Y243 whole entry, looked up): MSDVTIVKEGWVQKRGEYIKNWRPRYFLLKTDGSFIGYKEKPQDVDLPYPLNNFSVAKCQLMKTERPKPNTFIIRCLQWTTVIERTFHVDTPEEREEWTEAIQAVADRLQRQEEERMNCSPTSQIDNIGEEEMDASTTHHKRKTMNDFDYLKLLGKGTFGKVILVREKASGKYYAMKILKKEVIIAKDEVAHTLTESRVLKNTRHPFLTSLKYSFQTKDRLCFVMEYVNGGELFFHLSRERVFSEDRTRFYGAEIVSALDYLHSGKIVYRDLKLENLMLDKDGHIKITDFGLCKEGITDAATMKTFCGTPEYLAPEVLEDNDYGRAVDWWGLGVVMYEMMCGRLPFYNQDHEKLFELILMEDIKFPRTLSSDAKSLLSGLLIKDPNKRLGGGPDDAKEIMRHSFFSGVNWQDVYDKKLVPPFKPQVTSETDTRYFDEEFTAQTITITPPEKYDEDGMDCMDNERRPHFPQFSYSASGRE

With `COc1ccc(C#Cc2cccc3cc(C(C)Nc4ncnc5[nH]cnc45)n(-c4ccccc4)c(=O)c23)cc1` (centres undefined), the Activity in the data set on THP-1 [1] was 0.053%; in the data set with Jurkat [2] it was “Dose-Dependent Effect”; with THP-1 [6], 35.7%; in the data set with THP-1 [9], 7.85%; with Jurkat [11] it was 0%; in the data set on THP-1 [12], 14.6%. For the same compound, the Activity with Jurkat [14] is 0.042%; in the data set with Jurkat [16] it was “Dose-Dependent Effect”; with THP-1 [19], 0.041%; with Jurkat [21], 0.016%. Also, the inhibition in data set [3] was 16%; in data set [8], 53%. Also, the viability at 0.1 µM in the data set on THP-1 [4] and with Jurkat [18] was 66.8% throughout. Also, the viability at 10 µM was 30.2% with Jurkat [5] and 60.7% with THP-1 [17]. Besides, the IC50 with Jurkat [7] was 2.41 µM; in the data set on 4T1 it was 9.76 µM; in the data set with HepG2, more than 100 µM. In [10], the IC50 at 24 h is more than 100 µM. Moreover, the inhibition entry (in the data set with RAW264.7; in data set [20]) was “Active” in each case. The result in the data set on Jurkat [13] and in the data set with Jurkat [15] was Active.

The values are drawn from ChEMBL document CHEMBL5252648, “Design, synthesis and bioactivity evaluation of a series of quinazolinone derivatives as potent PI3Kγ antagonist” (Bioorg Med Chem, 2023).
